Among the data in ChEMBL document CHEMBL3507680, “University of Dundee, Gates Library screen for HepG2 cell viability” are cytotoxicity values, retold here.

A short description of this data set: Human HepG2 cell viability assay in 384 well format. The class given is toxicity, cell-based. The conditions noted are these: HepG2 cells, read-out: Inhibition. On the set-up: dose 125 nL, time 70.5 hour; concentration not given beside the values.
For the compound `Cn1c(=O)c2sccc2n(Cc2ccccc2)c1=O`, the cytotoxicity at 70.5 h was determined as 2.6%. Consider `COC(=O)CC(c1cccc(OC(F)F)c1)c1oc(C)cc(=O)c1O` (stereo unspecified), for which the cytotoxicity at 70.5 h was 7.18%. The same measure for `COc1ccc2nnc(CCCC(=O)NCCc3ccncc3)n2n1`: -5%; for `Cc1ccc(CN2CC[C@@H]3CN(S(C)(=O)=O)CCO[C@@H]3C2)o1`: 7.49%; for `Cc1cnc(N2C[C@@H]3[C@@H](C(=O)NC(C)C)CCS(=O)(=O)[C@@H]3C2)nc1`: 18%. Then `O=C(NC1CCC1)[C@H]1C[C@H]2NCCO[C@@H]2C1`, with 4.07%.

Take `O=C(NC1CCCCC1)N1C[C@@H]2OCCN(C(=O)c3ccco3)[C@@H]2C1`: the cytotoxicity at 70.5 h came to 0.645%. The same measure for `COc1cc(N2CC[C@@H](OC)[C@@H]2Cc2ccccc2)ncn1`: -1.02%. With `O=C(N1CCOCC1)N1C[C@@H]2OCCN(C(=O)c3ccco3)[C@@H]2C1`, the cytotoxicity at 70.5 h is -1.55%. The same measure for `CC1CC2(CCN(C(=O)c3csnn3)CC2)c2ccccc21` (stereo unspecified): 0.655%. As for `CC(C)Nc1nc2c(c(NC3CC3)n1)CCN(C(=O)C1CCOC1)CC2` (stereo unspecified), the cytotoxicity at 70.5 h is 1.81%. Then `CNC(=O)C1CC2(CCN(C(=O)c3csnn3)CC2)c2ccccc21` (stereo unspecified), with 0.474%. As to `Cc1cc(CN2C[C@@H]3CN(Cc4ccsc4)CCO[C@@H]3C2)no1`, the cytotoxicity at 70.5 h was determined as 7.7%.

As to `COCCN(C)C(=O)c1nc2c(s1)CCCN2C`, the cytotoxicity at 70.5 h amounted to 11.8%.

For `CC(C)N1CCCc2sc(C(=O)NC3CC3)nc21`, the cytotoxicity at 70.5 h stood at 8.47%.

In the case of `COCCN(C)C(=O)c1nc2c(s1)CCCN2c1ncccn1`, the cytotoxicity at 70.5 h is -3.25%.

`CC(C)NC(=O)[C@H]1CCS(=O)(=O)[C@@H]2CN(c3ncc(F)cn3)C[C@H]12`: the cytotoxicity at 70.5 h was -2.87%. Consider `O=C(c1cnccn1)N1CC[C@H]2[C@H]1CCN2S(=O)(=O)C1CC1`, for which the cytotoxicity at 70.5 h is -4.25%. The same measure for `COCCO[C@H]1CCN(c2cc(OC)ncn2)[C@H]1Cc1ccncc1`: -1.44%; for `O=C(c1ccnnc1)N1CC[C@H]2[C@H]1CCN2S(=O)(=O)C1CC1`: -0.791%.

`Cn1nccc1-c1nc2c(cc1C(=O)O)CCN(CC1CC1)CC2`: the cytotoxicity at 70.5 h was 12.7%. The same measure for `CCC1=N[C@@]2(CC[C@@H]3CN(CC4CC4)C[C@@H]32)C(=O)N1`: 7.37%. The same measure for `CN(C)C(=O)N1CCCC2(CCN(Cc3ccc(Cl)c(F)c3)C2)C1` (stereo unspecified): -6.53%. Then `O=C(C1CCSCC1)N1CCC2(CC1)COC(COCC1CC1)C2` (stereo unspecified), with -11.3%; and `CCc1ccc(CN2CCC3(CCCN(C(=O)N(C)C)C3)C2)o1` (stereo unspecified), with -10.4%; and `CN(C)C(=O)CNC(=O)c1nc2c(s1)CCCN2Cc1ccccc1`, with -2.15%. `CC(=O)N1CCO[C@@H]2CN(S(=O)(=O)c3ccccc3F)C[C@@H]2C1`: the cytotoxicity at 70.5 h was -10.2%. Then `O=C1NCCO[C@H]2CN(C(=O)CCc3ccccc3Cl)CC[C@@H]12`, with 22.6%; and `COCC1c2nnn(C)c2CCN1C(=O)Cc1ccc2c(c1)OCO2` (stereo unspecified), with 9.52%. The same measure for `O=C(c1ccnnc1)N1C[C@@H]2CN(c3ncccn3)C[C@@H]2C1`: 7.41%; for `CN(C)c1ncnc2c1CCN(c1ccccc1)CC2`: 13.6%.

On to `Cn1cnc(C(=O)N2CC3(CCN(S(=O)(=O)c4ccccc4)C3)C2)c1`, for which the cytotoxicity at 70.5 h is -7.62%. Turning to `CS(=O)(=O)N1CCC2(CCCN(c3ncc(F)cn3)C2)C1` (stereo unspecified), the cytotoxicity at 70.5 h is -7.4%. Then `CCS(=O)(=O)N1CCCC2(CCCN2C(=O)c2cn(C)cn2)C1` (stereo unspecified), with -8.17%; and `O=C(c1ccnnc1)N1CC2(CCN(c3ncccn3)C2)C1`, with -5.07%; and `COCC(=O)N1CC2(CCN(c3ccccc3)C2)C1`, with -5.97%. As to `O=C(c1ccoc1)N1C[C@@H]2CN(c3ncccn3)C[C@@H]2C1`, the cytotoxicity at 70.5 h is -4.89%. Then `COc1ncnc2c1CCN(c1cccc(F)c1)CC2`, with -6.07%.

Turning to `Cc1cc(F)ccc1NC(=O)Cn1cc(C(=O)O)ccc1=O`, the cytotoxicity at 70.5 h is -18.2%. Turning to `COc1cccc(C2C3=C(COC3=O)Nc3[nH]nc(C)c32)c1O` (stereo unspecified), the cytotoxicity at 70.5 h is -3.51%. The same measure for `CC(C)NC(=O)c1cc2c([nH]c1=O)CC(c1cccs1)CC2=O` (stereo unspecified): 6.88%. Then `COc1cc(CO)c(OC)c2c1OCO2`, with -8.39%; and `Cc1ccc(N2Cc3nc(=O)[nH]n3C2=O)cc1`, with 6.49%; and `O=C1N(c2cccc(Cl)c2)Cc2nc(=O)[nH]n21`, with -3.18%. Then `COC(=O)CNC(=O)CSCc1nc(O)c2cc(C)sc2n1`, with 4.84%; and `COc1cc(OC)cc(C2SCC(=O)Nc3ccsc32)c1` (stereo unspecified), with -4.19%.

For `CC(C)c1cc2c(O)nc(CSCC(=O)NCc3ccncc3)nc2s1`, the cytotoxicity at 70.5 h was -12.9%. With `O=C1CC(c2ccc(C(=O)O)cc2)c2ncn(-c3ccccc3F)c2N1` (stereo unspecified), the cytotoxicity at 70.5 h is -11.1%. Then `O=C1CC(c2ccc(C(=O)O)cc2)c2ncn(-c3ccc(F)cc3)c2N1` (stereo unspecified), with -4.89%.

As for `COCCNC(=O)CSCc1nc(O)c2cc(C(C)C)sc2n1`, the cytotoxicity at 70.5 h is -8.44%.

On to `COc1ccc(N2Cc3nc(=O)[nH]n3C2=O)cc1`, for which the cytotoxicity at 70.5 h came out at 6.34%. The same measure for `O=C1CC(c2ccc(C(=O)O)cc2)c2ncn(-c3cccc(Cl)c3)c2N1` (stereo unspecified): -9.82%; for `CC1CCc2nc(O)c(C(=O)NCCCN3CCN(C)CC3)cc2C1` (stereo unspecified): -7.22%. For the compound `Cc1csc(CCNC(=O)c2cc3c(nc2O)CCC(C)C3)n1` (stereo unspecified), the cytotoxicity at 70.5 h was -8.45%. As to `COC(=O)C(C)NC(=O)CSCc1nc(O)c2cc(C(C)C)sc2n1` (stereo unspecified), the cytotoxicity at 70.5 h stood at 6.75%. The same measure for `COc1cc(C2SCC(=O)Nc3ccsc32)cc(OC)c1OC` (stereo unspecified): -14.5%; for `O=c1c2cnc(N3CCCC3)nc2ccn1-c1cccc(C(F)(F)F)c1`: -5.84%; for `Cc1ccc(Sc2ccc(N3CCC(C(=O)O)CC3)nn2)cc1`: 33.4%.

For the compound `Cc1c(C)n(CC(O)CN2CCC(C)CC2)c2c(Cl)cccc12` (stereo unspecified), the cytotoxicity at 70.5 h is 14.8%. Then `Cc1c(C)n(CC(O)CN2CCC(O)CC2)c2c(Cl)cccc12` (stereo unspecified), with 16.5%; and `Cc1cc(C)c(C#N)c(N2CCC(Cc3ccccc3)CC2)n1`, with -2.18%; and `COc1ncc(C(=O)NCc2ccccc2)cn1`, with 0.247%. The same measure for `CCN(CC)C(=O)Cn1c(C)cc2nc(SC)n(CC(C)C)c(=O)c21`: -6.31%; for `CSc1nc2cc(C)n(CC(=O)NC(C)C)c2c(=O)n1CC(C)C`: -4.16%.

As to `CSc1nc2cc(C)n(CC(=O)N3CCCC3)c2c(=O)n1CC(C)C`, the cytotoxicity at 70.5 h is -5.31%. The same measure for `CCOC(=O)CSc1ccc(-c2nc(C)no2)cn1`: 1.96%; for `Cc1noc(C2(NC(=O)c3cccnc3O)CCCCC2)n1`: 2.75%. The same measure for `COc1cccc(Cn2c(=O)n(C)c(=O)c3sccc32)c1`: 0.75%; for `O=C(O)C1CCN(c2ccc(Sc3ccc(Br)cc3)nn2)CC1`: 26.1%; for `COc1cc(CN)c(OC)c2c1OCO2`: -15.1%. Then `Cn1nnc2c1CCN(Cc1ccco1)C2COCc1ccccc1` (stereo unspecified), with 1.81%; and `CCN(C)c1ncnc2c1CCN(C(=O)NCc1cccnc1)CC2`, with 0.595%; and `CN(C)C(=O)NCc1nnn2c1CN(CC1CCOCC1)CCC2`, with 0.222%. Consider `Cn1cc(CN2CCc3c(nnn3C)C2COCc2ccccc2)cn1` (stereo unspecified), for which the cytotoxicity at 70.5 h came to 32.3%.

Consider `COCCO[C@H]1CCN(c2cc(OC)ncn2)[C@H]1Cc1cccnc1`, for which the cytotoxicity at 70.5 h worked out at 7.05%. Then `COc1cc(N2C[C@H]3CN(C(=O)c4cccnc4)C[C@H]3C2)ncn1`, with -2.8%; and `Cc1cc(CN2C[C@@H]3CN(C(=O)c4ccco4)CCO[C@@H]3C2)no1`, with -5.36%; and `Cc1nc2c(c(NC(C)C)n1)CCN(C(=O)c1cc[nH]n1)CC2`, with -8.54%.

On to `c1ccc(CN2CCOC3(COCCN(c4ncccn4)C3)C2)nc1` (stereo unspecified), for which the cytotoxicity at 70.5 h is -12.3%.

Regarding `CCC1=N[C@@]2(CC[C@@H]3CN(Cc4ccccc4C)C[C@@H]32)C(=O)N1`, the cytotoxicity at 70.5 h was -4.43%. The same measure for `CN(C)C(=O)NCc1ncn2c1CN(Cc1ccco1)CCC2`: -6.46%; for `Cc1cnnn1Cc1nnn2c1CN(Cc1ccccn1)CCC2`: -7.24%.

Take `c1ccc(CN2CCCn3nnc(Cn4cccc4)c3C2)nc1`: the cytotoxicity at 70.5 h is -7.02%. The same measure for `CN1CCO[C@@H]2CN(S(=O)(=O)c3ccccc3)CC[C@@H]2C1`: -5%; for `c1cnc(N2CCOCC3(CN(Cc4ccsc4)CCO3)C2)nc1` (stereo unspecified): -3.74%. For the compound `Cc1cnnn1Cc1nnn2c1CN(Cc1cccs1)CCC2`, the cytotoxicity at 70.5 h was -1.92%. The same measure for `CN1CCO[C@@H]2CN(S(=O)(=O)c3ccc(F)cc3)CC[C@@H]2C1`: -1.86%; for `CC1=N[C@@]2(CC[C@@H]3CN(CC(C)C)C[C@@H]32)C(=O)N1C`: -5.39%; for `c1coc(CNc2ncc3c(n2)C2(CCNC2)COC3)c1` (stereo unspecified): -4.32%. Consider `c1cnc(N2CCOC3(COCCN(Cc4cc[nH]n4)C3)C2)nc1` (stereo unspecified), for which the cytotoxicity at 70.5 h is -8.27%. Regarding `COCCC(=O)N1CCN(CC2CC2)c2nc(C)ccc2C1`, the cytotoxicity at 70.5 h is 9.16%. The same measure for `c1c2c(nn1CC1CC1)C(CNC1CCOCC1)OCC2` (stereo unspecified): -11.6%; for `CN1CC2(CCN(C(=O)Cc3ccccn3)CC2)OCC1=O`: -5.16%; for `c1c2c(nn1CC1CCOCC1)C(CNC1CCOCC1)OCC2` (stereo unspecified): 7.06%. Then `Cn1cc2c(n1)C(CNC1CCOCC1)OCC2` (stereo unspecified), with -5.41%. Take `O=C(O)CN1CCC(F)(F)C2(CCN(c3ccccn3)C2)C1` (stereo unspecified): the cytotoxicity at 70.5 h was 2.21%.
